Measured values reported in the supplement of paper PMC10627819.

Tested on: S. pneumoniae D39V
Experiment: fitness (endpoint OD595 vs no drug) (fraction); higher = more growth
Summary of the method: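 At 37 °C, bacteria in TSB, LB Lennox or CY were grown in 384-well plates from a starting OD595 of 0.01. OD595 was measured every 30 min for 14 h, with the first reading used as background. Fitness is the optical density at the switch to stationary phase as a fraction of the robust mean of no-drug control wells, capped at 1.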
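Further: OD595 on entry to stationary phase over no-drug wells; at most 1.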

CC(=O)Oc1ccccc1C(=O)O [Acetylsalicylic acid] + C/C(=C\C(=O)OCCCCCCCCC(=O)O)C[C@@H]1OC[C@H](C[C@@H]2O[C@H]2[C@@H](C)[C@H](C)O)[C@@H](O)[C@H]1O [Pseudomonic acid]
fitness
Conditions	first compound 250 µg/mL	first compound 500 µg/mL	first compound 1000 µg/mL
partner 0.03 µg/mL	0.933	0.9	0.825
partner 0.06 µg/mL	0.822	0.723	–
partner 0.12 µg/mL	0.542	0.488	0.383

CC(=O)Oc1ccccc1C(=O)O [Acetylsalicylic acid] + CC1=C(C(=O)O)N2C(=O)[C@@H](NC(=O)[C@H](N)c3ccccc3)[C@H]2SC1 [Cephalexin]
fitness, one replicate
Conditions	first compound 250 µg/mL	first compound 500 µg/mL	first compound 1000 µg/mL
partner 0.125 µg/mL	0.955	0.996	0.935
partner 0.25 µg/mL	0.931	0.961	0.913
partner 0.5 µg/mL	0.923	0.932	0.92

fitness
Conditions	first compound 250 µg/mL	first compound 500 µg/mL	first compound 1000 µg/mL
partner 1 µg/mL	0.902	0.89	0.727
partner 2 µg/mL	0.611	–	0.391
partner 4 µg/mL	0.0549	0.0473	0.0319

CC(=O)Oc1ccccc1C(=O)O [Acetylsalicylic acid] + CC(C1CCC(C(O1)OC2C(CC(C(C2O)OC3C(C(C(CO3)(C)O)NC)O)N)N)N)NC [Gentamicin]
fitness, main component drawn
Conditions	partner 2 µg/mL	partner 4 µg/mL	partner 8 µg/mL
first compound 250 µg/mL	0.955	0.967	0.93
first compound 500 µg/mL	0.972	0.947	0.917

CC(=O)Oc1ccccc1C(=O)O [Acetylsalicylic acid] + CCC(C)C1C(=O)NC(=C)C(=O)NC(C(=O)NC(CSCC(C(=O)N1)NC(=O)/C(=C/C)/NC(=O)C(C(C)CC)N)C(=O)NC2C(SCC(NC(=O)CNC(=O)C3CCCN3C2=O)C(=O)NC(CCCCN)C(=O)NC4C(SCC(NC(=O)CNC(=O)C(NC(=O)C(NC(=O)C(NC(=O)CNC4=O)C)CC(C)C)CCSC)C(=O)NC(CC(=O)N)C(=O)NC(CCSC)C(=O)NC(CCCCN)C(=O)NC5C(SCC6C(=O)NC(C(=O)NC(CSC(C(C(=O)N6)NC(=O)C(NC5=O)C)C)C(=O)NC(CO)C(=O)NC(C(C)CC)C(=O)NC(CC7=CN=CN7)C(=O)NC(C(C)C)C(=O)NC(=C)C(=O)NC(CCCCN)C(=O)O)CC8=CN=CN8)C)C)C)CC(C)C [Nisin]
fitness, main component drawn
Conditions	partner 0.4275 µg/mL	partner 0.855 µg/mL	partner 1.6 µg/mL	partner 1.71 µg/mL	partner 3.2 µg/mL	partner 6.4 µg/mL
first compound 250 µg/mL	0.994	0.711	0.0198	0.0841	0.0317	0.0271
first compound 500 µg/mL	0.974	0.715	0.0324	0.114	0.0227	0.0184
first compound 1000 µg/mL	–	0.526	0.0339	0.0989	0.0138	0.0153

CC(=O)Oc1ccccc1C(=O)O [Acetylsalicylic acid] + CC[C@H]1OC(=O)[C@H](C)[C@@H](O[C@H]2C[C@@](C)(OC)[C@@H](O)[C@H](C)O2)[C@H](C)[C@@H](O[C@@H]2O[C@H](C)C[C@H](N(C)C)[C@H]2O)[C@](C)(OC)C[C@@H](C)C(=O)[C@H](C)[C@@H](O)[C@]1(C)O [Clarithromycin]
fitness, one replicate
Conditions	first compound 250 µg/mL	first compound 500 µg/mL	first compound 1000 µg/mL
partner 0.007812 µg/mL	0.824	0.781	0.281
partner 0.01562 µg/mL	0.783	0.763	0.193
partner 0.03125 µg/mL	0.621	0.627	0.257

fitness
Conditions	partner 0.0625 µg/mL	partner 0.07 µg/mL	partner 0.125 µg/mL	partner 0.14 µg/mL	partner 0.25 µg/mL	partner 0.28 µg/mL
first compound 250 µg/mL	0.642	0.195	0.369	0.137	0.133	0.104
first compound 500 µg/mL	0.586	0.228	0.359	0.167	0.147	0.108
first compound 1000 µg/mL	0.405	0.155	0.148	0.139	0.0751	0.0935

CC(=O)Oc1ccccc1C(=O)O [Acetylsalicylic acid] + CN(C)C(=O)C(CCN1CCC(O)(c2ccc(Cl)cc2)CC1)(c1ccccc1)c1ccccc1 [Loperamide]
fitness
Conditions	partner 17.14 µg/mL	partner 20 µg/mL	partner 34.28 µg/mL	partner 40 µg/mL	partner 80 µg/mL
first compound 250 µg/mL	0.987	0.989	0.945	0.982	≥ 1
first compound 500 µg/mL	0.972	≥ 1	0.981	≥ 1	≥ 1
first compound 1000 µg/mL	0.859	0.987	0.879	0.967	0.937

partner 68.57 µg/mL, one replicate
Conditions	fitness
first compound 250 µg/mL	0.931
first compound 500 µg/mL	0.927
first compound 1000 µg/mL	≥ 1

CC(=O)Oc1ccccc1C(=O)O [Acetylsalicylic acid] + CN(C)c1cc(NC(=O)CNC(C)(C)C)c(O)c2c1C[C@H]1C[C@H]3[C@H](N(C)C)C(O)=C(C(N)=O)C(=O)[C@@]3(O)C(O)=C1C2=O [Tigecycline]
fitness
Conditions	partner 0.325 µg/mL	partner 0.65 µg/mL	partner 1.3 µg/mL	partner 2.6 µg/mL
first compound 250 µg/mL	0.934	0.968	1	0.932
first compound 500 µg/mL	0.904	0.985	0.949	0.95
first compound 1000 µg/mL	0.797	0.763	0.803	0.718

CC(=O)Oc1ccccc1C(=O)O [Acetylsalicylic acid] + CN[C@@H]1[C@H](O[C@H]2[C@H](O[C@H]3[C@H](O)[C@@H](O)[C@H](N=C(N)N)[C@@H](O)[C@@H]3N=C(N)N)O[C@@H](C)[C@]2(O)C=O)O[C@@H](CO)[C@H](O)[C@H]1O [Streptomycin]
fitness
Conditions	first compound 250 µg/mL	first compound 500 µg/mL	first compound 1000 µg/mL
partner 2 µg/mL	0.954	0.928	0.806
partner 4 µg/mL	0.977	0.892	–
partner 8 µg/mL	0.929	0.869	–

partner 16 µg/mL, one replicate
Conditions	fitness
first compound 250 µg/mL	0.772
first compound 500 µg/mL	0.605
first compound 1000 µg/mL	0.159

CC(=O)Oc1ccccc1C(=O)O [Acetylsalicylic acid] + CO[C@H]1/C=C/O[C@@]2(C)Oc3c(C)c(O)c4c(O)c(c(/C=N/N5CCN(C)CC5)c(O)c4c3C2=O)NC(=O)/C(C)=C\C=C\[C@H](C)[C@H](O)[C@@H](C)[C@@H](O)[C@@H](C)[C@H](OC(C)=O)[C@@H]1C [Rifampicin]
fitness
Conditions	first compound 250 µg/mL	first compound 500 µg/mL	first compound 1000 µg/mL
partner 0.025 µg/mL	0.932	0.913	0.81
partner 0.05 µg/mL	–	0.899	0.668
partner 0.1 µg/mL	0.476	0.37	–

partner 0.2 µg/mL, one replicate
Conditions	fitness
first compound 250 µg/mL	0
first compound 500 µg/mL	0
first compound 1000 µg/mL	0

CC(=O)Oc1ccccc1C(=O)O [Acetylsalicylic acid] + C[C@@H](O)[C@H]1C(=O)N2C(C(=O)O)=C(SCCNC=N)C[C@H]12 [Imipenem]
fitness
Conditions	partner 0.005 µg/mL	partner 0.0065 µg/mL	partner 0.01 µg/mL	partner 0.013 µg/mL	partner 0.02 µg/mL	partner 0.026 µg/mL
first compound 250 µg/mL	0.948	0.983	0.898	0.953	0.912	0.914
first compound 500 µg/mL	0.956	0.969	0.954	0.993	0.955	0.912
first compound 1000 µg/mL	0.856	0.868	0.85	0.943	0.813	0.907

CC(=O)Oc1ccccc1C(=O)O [Acetylsalicylic acid] + C[C@H]1COc2c(N3CCN(C)CC3)c(F)cc3c(=O)c(C(=O)O)cn1c23 [Levofloxacin]
fitness
Conditions	partner 0.1725 µg/mL	partner 0.2 µg/mL	partner 0.345 µg/mL	partner 0.4 µg/mL	partner 0.69 µg/mL	partner 0.8 µg/mL
first compound 250 µg/mL	0.992	0.92	0.954	0.868	0.671	0.673
first compound 500 µg/mL	≥ 1	0.929	0.9	0.898	0.692	0.653
first compound 1000 µg/mL	0.95	0.881	0.938	0.734	0.716	0.513

CC(=O)Oc1ccccc1C(=O)O [Acetylsalicylic acid] + C[C@H]1c2cccc(O)c2C(=O)C2=C(O)[C@]3(O)C(=O)C(C(N)=O)=C(O)[C@@H](N(C)C)[C@@H]3[C@@H](O)[C@@H]21 [Doxycycline]
fitness, one replicate
Conditions	first compound 250 µg/mL	first compound 500 µg/mL	first compound 1000 µg/mL
partner 0.003875 µg/mL	≥ 1	≥ 1	0.95
partner 0.00775 µg/mL	0.998	≥ 1	≥ 1

fitness
Conditions	first compound 250 µg/mL	first compound 500 µg/mL	first compound 1000 µg/mL
partner 0.0155 µg/mL	0.907	0.941	0.842
partner 0.031 µg/mL	0.825	0.822	0.668

CC(=O)Oc1ccccc1C(=O)O [Acetylsalicylic acid] + Clc1ccc(COC(Cn2ccnc2)c2ccc(Cl)cc2Cl)c(Cl)c1 [Miconazole]
fitness
Conditions	partner 1.073 µg/mL	partner 1.25 µg/mL	partner 2.145 µg/mL	partner 2.5 µg/mL	partner 4.29 µg/mL	partner 5 µg/mL
first compound 250 µg/mL	≥ 1	0.902	0.943	0.863	0.9	0.937
first compound 500 µg/mL	≥ 1	0.816	0.918	0.772	0.858	0.844
first compound 1000 µg/mL	≥ 1	0.643	0.957	0.589	0.875	0.656

CC(=O)Oc1ccccc1C(=O)O [Acetylsalicylic acid] + O=C1CN(/N=C/c2ccc([N+](=O)[O-])o2)C(=O)N1 [Nitrofurantoin]
fitness
Conditions	partner 1.285 µg/mL	partner 2 µg/mL	partner 2.57 µg/mL	partner 4 µg/mL	partner 8 µg/mL
first compound 250 µg/mL	0.979	0.9	0.973	0.91	0.813
first compound 500 µg/mL	0.974	0.835	0.947	0.786	0.742
first compound 1000 µg/mL	0.931	0.513	0.93	0.446	0.467

partner 5.14 µg/mL, one replicate
Conditions	fitness
first compound 250 µg/mL	0.93
first compound 500 µg/mL	0.888
first compound 1000 µg/mL	0.813

CC(=O)Oc1ccccc1C(=O)O [Acetylsalicylic acid] + O=C(O)[C@H]1/C(=C/CO)O[C@@H]2CC(=O)N21 [Clavulanic acid]
fitness
Conditions	first compound 250 µg/mL	first compound 500 µg/mL	first compound 1000 µg/mL
partner 0.5 µg/mL	0.954	0.967	0.696
partner 1 µg/mL	0.902	0.902	0.696
partner 2 µg/mL	0.884	0.819	0.596
